Test results as given in US9744174B2 (DemeRx, Inc., priority 2013, dated 2017).
pKi: −log10 of the molar value. Entries after “also recorded” stand apart in the source; their conditions may differ.

Assays:
[1] = varies with the pH of the urine; cited from earlier work
male Sprague Dawley rats = assay: Noribogaine-methadone interaction study: mortality and postdose observations after oral dosing; conditions: rats; for Number Dead after Methadone: 10 dosed
[2] = as above; conditions: male, Sprague Dawley, rat, in vivo, po, methadone LD50, rats, oral
[3] = Ascending single-dose pharmacokinetics of noribogaine and noribogaine glucuronide (plasma, urine; LCMSMS); conditions: for AUC0-216 / AUC0-∞ / Cmax / Tmax / t1/2 / CL/F: mean (SD)
[4] = system: opioid-dependent participants; assay: QT interval prolongation in the efficacy trial; assay type: in vivo, human
Method: (§1) The efficacy of noribogaine in humans was evaluated in opioid-dependent participants in a randomized, placebo-controlled, double-blind trial. […] See U.S. Provisional Application No. 61/852,485, filed Mar. 15, 2013, which is incorporated herein by reference in its entirety.
(§2) In the first cohort, six patients were orally administered a single dose of 60 mg noribogaine, and three patients received placebo. In the second cohort, five patients were orally administered a single dose of 120 mg noribogaine, and three patients received placebo.

[5] = system: healthy, drug-free male volunteers; assay: Cold pressor test (analgesic effect); assay type: in vivo, human; conditions: single oral 3-60 mg; duration of hand immersion and VAS pain scores vs placebo
Method: Analgesic effect was assessed based on duration of hand immersion in ice water and on visual analog scale (VAS) pain scores upon hand removal from the water bath.
(§3) Safety and tolerability of noribogaine were tested in the group of volunteers from Example 2. […] Safety evaluations included clinical monitoring, recording of adverse events (AEs), safety laboratory tests, vital signs, ECG telemetry from −2 h to 6 h after dosing, and 12-lead electrocardiograms (ECGs) up to 216 hours post-dosing.

[6] = system: healthy, drug-free male volunteers; assay: Pupillometry (pupillary miosis) after single oral dose; assay type: in vivo, human; conditions: single oral 3, 10, 30 or 60 mg, up to 216 hours post-dosing
Method: Pulse oximetry and capnography data were collected continuously using a GE Carescape B650 monitoring system from 2 hours prior to dosing and until six hours after dosing, and thereafter at 12, 24, 48 and 72 hours post-dosing. […] Pupillary miosis was assessed by pupillometry.

[7] = system: opioid-dependent participants; assay: Efficacy trial: time to resumption of opioid substitution treatment (OST); assay type: in vivo, human
Method: as §1, §2

[8] = system: healthy, drug-free male volunteers; assay: Safety and tolerability: adverse events, vital signs, ECG; assay type: in vivo, human
Method: as §3

mu receptor = conditions: Pearl et al., Brain Research, 675:342-344 (1995); read-out: affinity constant (K value) for the mu receptor; cited from earlier work
[9] = plasma noribogaine glucuronide after single oral 30 mg noribogaine
[10] = plasma noribogaine glucuronide after single oral 60 mg noribogaine
[11] = plasma noribogaine, single oral 3 mg
[12] = plasma noribogaine, single oral 10 mg
[13] = plasma noribogaine, single oral 30 mg
[14] = plasma noribogaine, single oral 60 mg
[15] = oral, noribogaine 50 mg/kg then methadone 0 mg/kg (vehicle)
[16] = oral, noribogaine 150 mg/kg then methadone 0 mg/kg (vehicle)

## CC=C1N(C)C(C)CC1(c1ccccc1)c1ccccc1 (centres unmarked) [EDDP, 2-ethylidene-1.5-dimethyl-3.3diphenylpyrrolidine]
[1]
  Urinary excretion (percentage of a dose): 3-25%

## CCC(=O)C(CC(C)N(C)C)(c1ccccc1)c1ccccc1 (centres unmarked) [Methadone, reference compound]
[1]
  Urinary excretion (percentage of a dose): 5-50%
Male Sprague Dawley rats; oral, noribogaine 0 mg/kg then methadone 1 mg/kg (table; b148: 10 mg/kg)
  Number Dead after Methadone: 0
Male Sprague Dawley rats; oral, noribogaine 0 mg/kg then methadone 3 mg/kg (table; b148: 30 mg/kg)
  Number Dead after Methadone: 1
Male Sprague Dawley rats; oral, noribogaine 0 mg/kg then methadone 5 mg/kg (table; b148: 50 mg/kg)
  Number Dead after Methadone: 3
Male Sprague Dawley rats; oral, methadone alone at 10 mg/kg
  Persistence of slight languid behavior: 1.75 h
Male Sprague Dawley rats; oral, methadone alone at 50 mg/kg
  Postdose observations: prostrate, had tremors, shallow respirations
Male Sprague Dawley rats; oral, methadone at doses of 30 and 50 mg/kg
  Persistence of adverse observations following the methadone dose: 3 h
Male Sprague Dawley rats; oral, within one hour following methadone alone at 10 and 30 mg/kg
  Postdose observations: slight ataxia, salivation, hunched posture, and languid behavior
[2]; after 0 mg/kg of noribogaine
  LD50: 68.2 mg/kg
[2]; after 50 mg/kg of noribogaine
  LD50: 29.7 mg/kg
[2]; after 150 mg/kg of noribogaine
  LD50: 8.86 mg/kg

## CC[C@H]1C[C@@H]2C[C@H]3c4[nH]c5ccc(OC6OC(C(=O)O)C(O)C(O)C6O)cc5c4CCN(C2)[C@@H]13 (some centres unmarked) [Noribogaine glucuronide]
[3]; both dose groups (30 mg, 60 mg)
  Proportion of noribogaine glucuronide Cmax and AUC relative to noribogaine: 3-4%
[3]; [9]
  AUC0-216: 25.7 (9.1) ng · hr/ml
  AUC0-∞: 25.8 (9.3) ng · hr/ml
  Cmax: 1.8 (0.6) ng/ml
  Tmax: 3.0 (0.6) hr
  t1/2: 20.6 (4.9) hr
[3]; [10]
  AUC0-216: 65.0 (21.5) ng · hr/ml
  AUC0-∞: 67.1 (21.9) ng · hr/ml
  Cmax: 4.1 (1.2) ng/ml
  Tmax: 3.8 (1.2) hr
  t1/2: 23.1 (3.0) hr
[3]; plasma noribogaine glucuronide, 30 mg and 60 mg dose groups
  Time of peak concentrations after noribogaine dosing: 3 to 4 h
[3]; plasma noribogaine glucuronide, 30 mg and 60 mg noribogaine dose groups
  Time by which detected in all subjects: ≤ 0.75 h

## CC[C@H]1C[C@H]2C[C@H]3c4[nH]c5ccc(O)cc5c4CCN(C2)[C@@H]13 [Noribogaine]
[4]; 180 mg
  Change in the QT interval prolongation: above 30 ms
[4]; first cohort (60 mg noribogaine or placebo)
  Mean prolongation of the QT interval: less than 10 ms
[4]; second cohort (120 mg noribogaine or placebo)
  Mean prolongation of the QT interval: less than 40 ms
[5]
  Analgesic effect in the cold pressor test: no analgesic effect
[6]
  Pupillary constriction (pupil diameter): no evidence of pupillary constriction
[7]; 60 mg to 180 mg, inverted-U curve
  Therapeutic activity: therapeutic activity at all concentrations
[7]; 120 mg presumed treated patients, estimated from FIG. 4 profile
  Estimated serum noribogaine level at which significant withdrawal symptoms return and OST is resumed: 50 to 60 ng/mL
[7]; 180 mg, 6 presumed (imputed) noribogaine-treated patients
  Average time to resumption of OST: approximately 11.4 hours
[7]; (putatively) administered 60 mg noribogaine
  Time to resumption of OST: 9.6 h
[7]; second cohort, blinded: single oral 120 mg noribogaine (5 patients) or placebo (3)
  Average time to resumption of opioids: approximately 22 hours
[7]; single oral 60 mg or 120 mg
  Adverse effects, including hallucinatory effects: No adverse effects
[8]; 3 mg dose group, two subjects
  Number of adverse events reported: five
[8]; 10 mg dose group, single subject
  Number of adverse events reported: one
[8]; 30 mg dose group, single subject
  Number of adverse events reported: one
[8]; Dose 3 mg
  Adverse events, Mild: Dizziness; also recorded: Epistaxis; also recorded: Headache; also recorded: Back pain
  Adverse events, Moderate: Headache
[8]; Dose 10 mg
  Adverse events, Mild: Headache
[8]; Dose 30 mg
  Adverse events, Mild: Headache
[8]; one subject dosed with 10 mg, 24 hours post-dosing
  Single increase in QTcF: > 60 ms
[8]; single oral 3-60 mg
  Oximetry, capnography, respiratory rate: no changes in oximetry or capnography, or changes in respiratory rate
  Vital signs and safety laboratory tests: no changes in vital signs or safety laboratory tests of note
[8]; single oral 3-60 mg, at any time
  QTcF values: ≤ 500 ms
[3]; noribogaine, 3-60 mg, linear regression
  Dose-proportionality of Cmax and AUC: increased linearly with dose
[3]; noribogaine, across dose groups 3-60 mg
  Time of peak concentrations after oral dosing: 2 to 3 h
[3]; noribogaine, single oral 3 mg
  CL/F: 41.4 (7.0) L/h
[3]; noribogaine, single oral 10 mg
  CL/F: 42.3 (12.0) L/h
[3]; noribogaine, single oral 30 mg
  CL/F: 46.9 (16.4) L/h
[3]; noribogaine, single oral 60 mg
  CL/F: 34.0 (11.4) L/h
[3]; [11]
  AUC0-216: 72.2 (13.2) ng · hr/ml
  Cmax: 5.2 (1.4) ng/ml
  Tmax: 1.9 (0.6) hr
  t1/2: 40.9 (8.7) hr
[3]; [12]
  AUC0-216: 251.4 (78.5) ng · hr/ml
  Cmax: 14.5 (2.1) ng/ml
  Tmax: 2.9 (1.8) hr
  t1/2: 49.2 (11.5) hr
[3]; [13]
  AUC0-216: 677.6 (221.1) ng · hr/ml
  Tmax: 1.8 (0.6) hr
  t1/2: 27.6 (7.0))^ hr
[3]; [14]
  AUC0-216: 1935.4 (725.4) ng · hr/ml
  Tmax: 2.4 (0.6) hr
  t1/2: 29.1 (9.3) hr
Mu receptor
  pKi: 5.58
Male Sprague Dawley rats; [15]
  Number Dead after Methadone: 0
  % Dead after Methadone: 0%
Male Sprague Dawley rats; [16]
  Number Dead after Methadone: 0
  % Dead after Methadone: 0%
Male Sprague Dawley rats; oral, noribogaine 150 mg/kg then methadone 0 mg/kg (vehicle), listed as noribogaine
  Number Dead after Methadone: no deaths
Male Sprague Dawley rats; oral, approximately 5 hours following noribogaine at 50 mg/kg, a few animals
  Postdose observations: languid behavior and tremors involving the entire body
Male Sprague Dawley rats; oral, approximately 5 hours following noribogaine at 150 mg/kg
  Postdose observations: Salivation, languid behavior, and ataxia
Male Sprague Dawley rats; oral, following noribogaine 50 and 150 mg/kg
  Postdose observations: slight ataxia, salivation (slight or severe), and hunched posture
Male Sprague Dawley rats; oral, noribogaine 50 mg/kg
  Percentage of animals with observations of ataxia and salivation: 30-40%
Male Sprague Dawley rats; oral, noribogaine 150 mg/kg
  Percentage of animals with observations of ataxia and salivation: 60-70%
Male Sprague Dawley rats; oral, noribogaine 50 and 150 mg/kg, before methadone
  Persistence of observations following dosing: up to 4 hours
Male Sprague Dawley rats; oral, noribogaine alone
  Persistence of adverse observations following dosing: 6.5 to 7 h
Male Sprague Dawley rats; oral, noribogaine at doses of 0, 50, and 150 mg/kg followed by the interaction article vehicle
  Mortality: no mortality
Male Sprague Dawley rats; oral noribogaine at doses of 50 and 150 mg/kg
  Effect on mortality associated with oral methadone: potentiates the mortality

## CC[C@H]1CC2C[C@H]3c4[nH]c5ccc(OC)cc5c4CCN(C2)C13 [ibogaine, reference compound]
Mu receptor
  pKi: 4.96
